Data published in ChEMBL document CHEMBL5131495, “Discovery of unique thiazolidinone-conjugated coumarins as novel broad spectrum antibacterial agents” (Eur J Med Chem, 2022).
Values after ≈ are worked out from the molar mass of the structure shown.

How the values were obtained:
Type in all cases: functional
Pseudomonas aeruginosa [1] = test: Antibacterial activity against Pseudomonas aeruginosa ATCC 27853 assessed as inhibition of bacterial growth
Staphylococcus aureus [2] = test: Antibacterial activity against Staphylococcus aureus assessed as inhibition of bacterial growth
Escherichia coli [3] = test: Antibacterial activity against Escherichia coli ATCC 25922 assessed as inhibition of bacterial growth
Escherichia coli [4] = test: Antibacterial activity against Escherichia coli assessed as inhibition of bacterial growth
Klebsiella pneumoniae = test: Antibacterial activity against Klebsiella pneumoniae assessed as inhibition of bacterial growth
Acinetobacter baumannii = test: Antibacterial activity against Acinetobacter baumannii assessed as inhibition of bacterial growth
Enterococcus faecalis = test: Antibacterial activity against Enterococcus faecalis assessed as inhibition of bacterial growth
Pseudomonas aeruginosa [5] = test: Antibacterial activity against Pseudomonas aeruginosa assessed as inhibition of bacterial growth
Staphylococcus aureus [6] = test: Antibacterial activity against Staphylococcus aureus ATCC 25923 assessed as inhibition of bacterial growth
Staphylococcus aureus [7] = test: Antibacterial activity against Staphylococcus aureus ATCC 29213 assessed as inhibition of bacterial growth
Staphylococcus aureus [8] = test: Antibacterial activity against methicillin resistant Staphylococcus aureus N315 assessed as inhibition of bacterial growth

Row | SMILES | MIC (Pseudomonas aeruginosa [1]) [µg/mL] | MIC (Staphylococcus aureus [2]) [µg/mL] | MIC (Escherichia coli [3]) [µg/mL] | MIC (Escherichia coli [4]) [µg/mL] | MIC (Klebsiella pneumoniae) [µg/mL] | MIC (Acinetobacter baumannii) [µg/mL] | MIC (Enterococcus faecalis) [µg/mL] | MIC (Pseudomonas aeruginosa [5]) [µg/mL] | MIC (Staphylococcus aureus [6]) [µg/mL] | MIC (Staphylococcus aureus [7]) [µg/mL] | MIC (Staphylococcus aureus [8]) [µg/mL]
1 | Cc1ccc(/C=C2\S/C(=N/c3ccc4c(C)cc(=O)oc4c3)N(CCO)C2=O)cc1 | 32 (≈ 76.1 µM) | 64 (≈ 152 µM) | 256 (≈ 609 µM) | 128 (≈ 304 µM) | 256 (≈ 609 µM) | 8 (≈ 19 µM) | 256 (≈ 609 µM) | 128 (≈ 304 µM) | 256 (≈ 609 µM) | 128 (≈ 304 µM) | 128 (≈ 304 µM)
2 | Cc1cc(=O)oc2cc(/N=C3/S/C(=C\c4ccc(F)cc4F)C(=O)N3CCO)ccc12 | 32 (≈ 72.3 µM) | 32 (≈ 72.3 µM) | 128 (≈ 289 µM) | 64 (≈ 145 µM) | 64 (≈ 145 µM) | 64 (≈ 145 µM) | 2 (≈ 4.52 µM) | 64 (≈ 145 µM) | 4 (≈ 9.04 µM) | 32 (≈ 72.3 µM) | 64 (≈ 145 µM)
3 | C=CCn1cc(/C=C2\S/C(=N/c3ccc4c(C)cc(=O)oc4c3)N(CCO)C2=O)c2ccccc21 | 32 (≈ 65.9 µM) | 128 (≈ 264 µM) | 128 (≈ 264 µM) | 128 (≈ 264 µM) | 8 (≈ 16.5 µM) | 64 (≈ 132 µM) | 128 (≈ 264 µM) | 64 (≈ 132 µM) | 32 (≈ 65.9 µM) | 64 (≈ 132 µM) | 128 (≈ 264 µM)
4 | Cc1cc(=O)oc2cc(/N=C3/S/C(=C\c4ccc(Cl)cc4)C(=O)N3CCO)ccc12 | 8 (≈ 18.1 µM) | 128 (≈ 290 µM) | 2 (≈ 4.54 µM) | 64 (≈ 145 µM) | 128 (≈ 290 µM) | 32 (≈ 72.6 µM) | 128 (≈ 290 µM) | 2 (≈ 4.54 µM) | 8 (≈ 18.1 µM) | 4 (≈ 9.07 µM) | 16 (≈ 36.3 µM)
5 | Cc1ccc(/C=C2\S/C(=N/c3ccc4c(C)cc(=O)oc4c3)N(CCO)C2=O)c(C)c1 | 256 (≈ 589 µM) | 64 (≈ 147 µM) | 128 (≈ 295 µM) | 64 (≈ 147 µM) | 128 (≈ 295 µM) | 1 (≈ 2.3 µM) | 128 (≈ 295 µM) | 16 (≈ 36.8 µM) | 64 (≈ 147 µM) | 64 (≈ 147 µM) | 128 (≈ 295 µM)
6 | CCCCc1nc(Cl)c(/C=C2\S/C(=N/c3ccc4c(C)cc(=O)oc4c3)N(CCO)C2=O)[nH]1 | 256 (≈ 526 µM) | 8 (≈ 16.4 µM) | 64 (≈ 131 µM) | 32 (≈ 65.7 µM) | 64 (≈ 131 µM) | 64 (≈ 131 µM) | 128 (≈ 263 µM) | 256 (≈ 526 µM) | 128 (≈ 263 µM) | 64 (≈ 131 µM) | 128 (≈ 263 µM)
7 | COc1ccc(/C=C2\S/C(=N/c3ccc4c(C)cc(=O)oc4c3)N(CCO)C2=O)cc1 | 128 (≈ 293 µM) | 32 (≈ 73.3 µM) | 128 (≈ 293 µM) | 32 (≈ 73.3 µM) | 128 (≈ 293 µM) | 8 (≈ 18.3 µM) | 8 (≈ 18.3 µM) | 64 (≈ 147 µM) | 32 (≈ 73.3 µM) | 0.5 (≈ 1.15 µM) | 4 (≈ 9.16 µM)
8 | Cc1cc(=O)oc2cc(/N=C3/S/C(=C\c4c[nH]c5cc(Cl)ccc45)C(=O)N3CCO)ccc12 | 64 (≈ 133 µM) | 16 (≈ 33.3 µM) | 16 (≈ 33.3 µM) | 8 (≈ 16.7 µM) | 8 (≈ 16.7 µM) | 4 (≈ 8.33 µM) | 4 (≈ 8.33 µM) | 128 (≈ 267 µM) | 8 (≈ 16.7 µM) | 64 (≈ 133 µM) | 8 (≈ 16.7 µM)
9 | Cc1cc(=O)oc2cc(/N=C3/S/C(=C\c4cccs4)C(=O)N3CCO)ccc12 | 1 (≈ 2.42 µM) | 4 (≈ 9.7 µM) | 32 (≈ 77.6 µM) | 32 (≈ 77.6 µM) | 64 (≈ 155 µM) | 1 (≈ 2.42 µM) | 4 (≈ 9.7 µM) | 16 (≈ 38.8 µM) | 32 (≈ 77.6 µM) | 1 (≈ 2.42 µM) | 128 (≈ 310 µM)
10 | Cc1ccc(/C=C2\S/C(=N/c3ccc4c(C)cc(=O)oc4c3)N(CCO)C2=O)o1 | 16 (≈ 39 µM) | 128 (≈ 312 µM) | 64 (≈ 156 µM) | 16 (≈ 39 µM) | 32 (≈ 78 µM) | 8 (≈ 19.5 µM) | 64 (≈ 156 µM) | 16 (≈ 39 µM) | 256 (≈ 624 µM) | 128 (≈ 312 µM) | 8 (≈ 19.5 µM)
11 | Cc1cc(=O)oc2cc(/N=C3/S/C(=C\c4ccc(C#N)cc4)C(=O)N3CCO)ccc12 | 256 (≈ 593 µM) | 1 (≈ 2.32 µM) | 256 (≈ 593 µM) | 256 (≈ 593 µM) | 128 (≈ 297 µM) | 0.5 (≈ 1.16 µM) | 4 (≈ 9.27 µM) | 128 (≈ 297 µM) | 8 (≈ 18.5 µM) | 128 (≈ 297 µM) | 2 (≈ 4.64 µM)
12 | Cc1cc(=O)oc2cc(/N=C3/S/C(=C\c4ccccc4)C(=O)N3CCO)ccc12 | 64 (≈ 157 µM) | 64 (≈ 157 µM) | 256 (≈ 630 µM) | 256 (≈ 630 µM) | 256 (≈ 630 µM) | 1 (≈ 2.46 µM) | 128 (≈ 315 µM) | 64 (≈ 157 µM) | 128 (≈ 315 µM) | 128 (≈ 315 µM) | 64 (≈ 157 µM)
13 | Cc1cc(=O)oc2cc(/N=C3/S/C(=C\c4ccc([N+](=O)[O-])cc4)C(=O)N3CCO)ccc12 | 128 (≈ 284 µM) | 64 (≈ 142 µM) | 64 (≈ 142 µM) | 128 (≈ 284 µM) | 64 (≈ 142 µM) | 32 (≈ 70.9 µM) | 32 (≈ 70.9 µM) | 64 (≈ 142 µM) | 128 (≈ 284 µM) | 64 (≈ 142 µM) | 32 (≈ 70.9 µM)
14 | CCn1cc(C(=O)O)c(=O)c2cc(F)c(N3CCNCC3)cc21 [NORFLOXACIN] | 4 (≈ 12.5 µM) | 2 (≈ 6.26 µM) | 4 (≈ 12.5 µM) | 2 (≈ 6.26 µM) | 4 (≈ 12.5 µM) | 4 (≈ 12.5 µM) | 4 (≈ 12.5 µM) | 1 (≈ 3.13 µM) | 4 (≈ 12.5 µM) | 2 (≈ 6.26 µM) | 4 (≈ 12.5 µM)
